Measurements taken from patent US20110236405A1, “COAGULATION FACTOR MODULATION FOR CONTROLLING TRANSPLANT ORGAN SIZE” (Tel HaShomer Medical Research Infrastructure and Services …, priority 2008, published 2011).
Values joined by “and” are separate entries in the source; they are usually repeats but may differ in a detail not shown here. Identical values can stand only once. Where no end group is shown, it is not given here. The star is where a group is joined. Palmitoyl = CCCCCCCCCCCCCCCC(=O)*

Legend:
Type in all cases: in vivo, mouse
C57BL mice = experiment: G-CSF induced splenomegaly in C57BL and C57BL hemophilic mice; conditions: for effect on G-CSF induced splenomegaly: C57BL mice, daily treatment plus G-CSF, versus G-CSF alone; for average spleen weight: G-CSF treated
Procedure: 8 to 10 week old immune competent C57BL mice and C57BL hemophilic (C57BL Hem F8) mice were used for the G-CSF studies.
(§1) 8-10 weeks old NOD-SCID or Factor VIII KO SCID mice were treated by daily subcutaneous injections of recombinant human G-CSF (Neupogen, Amgen) at a dose of 250 μg per kg per day for 7 days. To determine the spleen weight, 7 days after the initiation of G-CSF treatment, mice were euthanized and spleens were harvested.
Enoxaparine (Clexane 20 mg/0.2 ml, Rhone-poulenc, France) was used at a dosage of 200 μg/mouse (dissolved in PBS) and 0.2 ml of the final solution was injected subcutaneously into each mouse once a day.
Dabigatran etexilate (Boehringer Ingelheim Pharma KG, Biberach, Germany) was administrated orally at dosage of 30 mg/kg. Final volume of 0.3 ml dissolved in DDW was administrated daily.
The palmitoylated peptides: pal-RCLSSSAVANRS (PAR1 antagonist, SEQ ID NO: 15) and pal-SGRRYGHALR (PAR4 antagonist, SEQ ID NO: 16) were prepared by solid-phase peptide synthesis using in situ neutralization/HBTU by Hadar Biotec, Israel.
The mice were treated by vehicle control, or with PAR1 antagonist or PAR4 antagonist at 0.5 mg/kg, intraperitonealy on daily basis.

[1] = test system: E42 pig liver precursor tissue implanted in Rag-/- mice; experiment: Embryonic pig liver implant growth in Rag-/- mice, pig albumin serum ELISA
Procedure: In addition, immune deficient RAG^−/− mice or RAG^−/− FVIII KO mice were used as hosts for the transplantation studies. To obtain RAG^−/− hemophilic mice (designated RAG^−/− FVIII KO mice), FVIII mutation was introduced into RAG^−/− mice, as was previously described. All mice were kept in small cages (up to five animals per cage) and fed sterile food.
Pig embryos were obtained from the Lahav Institute of Animal Research (Kibbutz Lahav, Israel). […] Warm ischemia time was less than 10 minutes and the embryos were transferred to cold PBS. Spleen, pancreas and liver precursors for transplantation were extracted under a light microscope and were kept in sterile conditions at 4° C. in RPMI 1640 (Biological Industries, Beit HaEmek, Israel) prior to transplantation. Cold ischemia time until transplantation was less than 2 hours.
Transplantation of pig precursors was completed as previously described [Dekel, B. et al., Nat Med (2003) 9, 53-60]. Briefly, transplantation of the embryonic precursors was performed under general anesthesia (2.5% 2,2,2-Tribromoethanol, 97% in PBS, 10 ml/kg intraperitoneally). […]
Pig albumin in mouse serum was measured by a standard ELISA procedure using primary goat anti-pig albumin antibody (human, mouse, and bovine absorbed), affinity purified, and secondary pig specific horseradish-peroxidase conjugated antibody (Catalog Nos. A100-210A and A100-210P, Bethyl). […]

[2] = test system: NOD-SCID or Factor VIII KO SCID mice; experiment: G-CSF induced splenomegaly in NOD-SCID and Factor VIII KO SCID mice; conditions: for average spleen weight: G-CSF 250 μg per kg per day s.c. for 7 days
Procedure: 8-10 week old immune deficient NOD-SCID or factor VIII KO-SCID mice (Weizmann Institute Animal Breeding Center, Rehovot, Israel) were used for G-CSF studies. To obtain immunodeficient hemophilic mice (designated factor VIII KO-SCID), FVIII-deficient mice were crossed with SCID mice, as was previously described [Aronovich, A. et al., Proc Natl Acad Sci USA (2006) 103: 19075-80].
as §1
Hu Factor VIII was infused into Factor VIII KO SCID mice by osmotic pumps (Azlet pump model 1003D, 1 μl/hr rate, 100 μl total capacity with a continuous delivery for 3 days). Thus, 60 IU Hu factor VIII was dissolved in 100 μl PBS and delivered by the 1003D pump for 3 days. The pump was administrated into the peritoneal cavity. After 3 days, a similar new pump was administrated. Initial concentration of the Hu Factor VIII was calibrated based on Hu Factor VIII half life and its clearance rate [Mordenti, J. et al., Toxicol Appl Pharmacol (1996) 136: 75-81].

CCCCCCOC(=O)NC(=N)c1ccc(NCc2nc3cc(C(=O)N(CCC(=O)OCC)c4ccccn4)ccc3n2C)cc1 [Dabigatran, Dabigatran etexilate]
effect on G-CSF induced splenomegaly (C57BL mice): marked enhancement
embryonic pig liver growth (pig albumin serum levels) ([1]; Rag-/- mice, Dabigatran etexilate 30 mg/kg orally daily): enhancement

Enoxaparine [Clexane]
effect on G-CSF induced splenomegaly (C57BL mice): marked enhancement
total average weight of the spleens (C57BL mice; C57BL/6 mice, following G-CSF induction, Clexane 200 μg/mouse s.c. once a day): 266 ± 91 mg
pig albumin blood levels ([1]; non-hemophilic recipients, days 7 and 21 post transplant, versus control recipients not receiving Clexane): marked enhancements

pal-RCLSSSAVANRS (Palmitoyl-RCLSSSAVANRS) [PAR1 antagonist, palmitoylated peptide, PAR1 antagonist]
effect on G-CSF induced splenomegaly (C57BL mice): significantly enhanced

pal-SGRRYGHALR (Palmitoyl-SGRRYGHALR) [PAR4 antagonist, palmitoylated peptide, PAR4 antagonist]
effect on G-CSF induced splenomegaly (C57BL mice): significantly enhanced

B1: G-CSF: recombinant human G-CSF (Neupogen, Amgen) (protein, chains of the INN, looked up)
chain: MTPLGPASSLPQSFLLKCLEQVRKIQGDGAALQEKLCATYKLCHPEELVLLGHSLGIPWAPLSSCPSQALQLAGCLSQLHSGLFLYQGLLQALEGISPELGPTLDTLQLDVADFATTIWQQMEELGMAPALQPTQGAMPAFASAFQRRAGGVLVASHLQSFLEVSYRVLRHLAQP
average spleen weight ([2]; Factor VIII KO SCID mice): 314.89 ± 121.51 mg
average spleen weight, Factor VIII KO SCID versus non-hemophilic mice ([2]; G-CSF treated mice): 2.6 fold
average spleen weight ([2]; non-hemophilic NOD-SCID mice): 118.5 ± 25.56 mg
average spleen weight (C57BL mice; C57BL hemophilic (Hem F8, Factor VIII KO) mice): 256.03 ± 149.86 mg and 261 ± 154 mg
average spleen weight (C57BL mice; non-hemophilic C57BL mice): 181.22 ± 61.43 mg
